The values below come from article PMC7824033, “Flavones, Flavonols, and Glycosylated Derivatives—Impact on Candida albicans Growth and Virulence, Expression of CDR1 and ERG11, Cytotoxicity” (Pharmaceuticals, 2020).

In brackets after ≈: the same amount, converted by molar mass. Entries after “also recorded” stand apart in the source; their conditions may differ. Like-named read-outs stand apart in the source and are kept apart here. A value given as a limit tells only on which side of the number the result lay.

One data set deals with C. albicans 10/15. Put plainly: Microdilution assay, MIC and MFC. To be noted: Candida albicans. It counts as cell-based. From the text:
(§1) C. albicans was isolated from oral cavities of patients at ENT Clinic, Clinical Hospital Centre Zvezdara, Belgrade, Serbia after obtaining informed written consent and identified by using CHROMagar plates (Biomerieux, Craponne, France). Strains were maintained on Sabouraud Dextrose Agar (Merck, Darmstadt, Germany) and are deposited at the Mycological Laboratory, Department of Plant Physiology, Institute for Biological Research “Siniša Stanković”, National Institute of Republic of Serbia, University of Belgrade. The collection of samples was approved by the Ethical Committee (Office for Human Research Protection, Zvezdara University Medical Center, Belgrade, Serbia, document issued 26 October 2016).
(§2) Microdilution assay with some modification was used for determination of minimum inhibitory (MIC) and minimum fungicidal concentrations (MFC). Yeast cultures were adjusted to 1.0 × 10^5 CFU/per well with sterile PBS (Phosphate buffered saline, pH 7.4). The 96-well microtiter plates with serially diluted flavonoids (concentration range 0.3–75 µg/mL) in liquid broth were incubated at 37 °C for 24 h. After incubation, MIC and MFC were determined. The lowest concentrations that were not inducing microscopically observed growth were considered as MIC. For microscopic determination of growth, we used inverted microscope Nikon Eclipse TS2 (Amsterdam, Netherland) and examined the fungal growth in the wells of 96-well microtiter plates compared to the control (untreated yeast cells). MFC values were determined as concentrations without visible growth after serial sub-cultivation of 10 µL of samples at 37 °C for 24 h. Ketoconazole and amphotericin B (SigmaAldrich, Darmstadt, Germany) were used as an antifungal control. The tested flavonoids were obtained from Extrasynthese, Rhone, France.

Another data set concerns C. albicans 13/15. Put plainly: Microdilution assay, MIC and MFC. It counts as cell-based. The note with it: Candida albicans.
Text: as §1, §2

The subject of another data set is C. albicans 475/15. Put plainly: Microdilution assay, MIC and MFC. The note with it: Candida albicans. It counts as cell-based.
Text: as §1, §2
On the technique in general: In broth dilution the organism is exposed to a series of concentrations in liquid medium.

A further data set has as its system C. albicans 527/14. Put plainly: Microdilution assay, MIC and MFC. It is filed as cell-based. To be noted: Candida albicans.
Text: as §1, §2

Data set [1] is described as follows: Cytotoxicity, Sulforhodamine B assay. The note with it: pig. The procedure: Preparation of PLP2 cell line was performed with freshly harvested porcine liver supplied from a local slaughter house. Tissues from the liver were washed in Hank’s balanced salt solution comprising 100 U/mL penicillin and 100 μg/mL streptomycin and split into 1 × 1 mm^3 explants. Some of the prepared explants were set in 25 cm^2 tissue flasks in Dulbecco’s modified Eagle’s medium (DMEM) with 10% fetal bovine serum (FBS), 2 mM nonessential amino acids, 100 U/mL penicillin, and […] streptomycin, and incubation was conducted at 37 °C with 5% CO2 in a humidified atmosphere. The fresh medium was added every 2 days. Cultivation of the cells was further conducted with direct observation by the phase contrast microscope every 2–3 days. Before confluence was achieved, cells were subcultured and seeded in 96-well plates at a density of 1.0 × 10^4 cells per well and cultivated in DMEM supplemented with 10% FBS, 100 U/mL penicillin, and 100 μg/mL streptomycin. Previously described Sulforhodamine B assay was used for the determination of cytotoxicity. The obtained results were defined as GI50 values corresponding to the compound concentration that inhibits 50% of the net cell growth. Ellipticine was used as a positive control.
(In SRB staining, fixed cells bind dye roughly in proportion to their protein.)

In another data set the test system is Candida albicans. Put plainly: Microdilution assay, MIC (strain not named). It counts as cell-based. To be noted: read-out: minimum inhibitory concentration (MIC).
Text: as §1, §2

In data set [2] the test system is C. albicans 475/15 biofilm formation. Put plainly: Inhibition of biofilm formation (crystal violet). It counts as cell-based, Candida albicans. The note with it: for antibiofilm activity: MIC and subMICs; for inhibition of biofilm formation: compound applied at MIC. The procedure: Potential of selected compounds to interfere with C. albicans 475/15 biofilm formation was investigated as previously described. Briefly, C. albicans 475/15 was incubated with serial dilution of the compounds (MIC and subMICs) in YPD medium, in 96-well microtiter plates with adhesive bottom (Sarstedt, Nümbrecht, Germany), at 37 °C for 24 h. After incubation, wells were washed twice with sterile PBS and methanol was added into each well. After fixation, methanol was discarded, and the plate was air dried. Formed biofilms were stained with 0.1% crystal violet (Bio-Merieux, Craponne, France) for 30 min. The plate was gently washed under the tap of water and air dried. The stain bound to the remaining biofilms was dissolved with ethanol (96%, Zorka, Šabac, Serbia). Absorbance was read on a Multiskan™ FC Microplate Photometer, Thermo Scientific™. The percentage of inhibition of biofilm formation was calculated by the formula:[(A620control − A620sample)/A620control] × 100

For data set [3], the system named is CDR1. Put plainly: Expression of CDR1 (qPCR). It is filed as cell-based, Candida albicans. To be noted: treatment with MIC. The protocol: (§3) Total RNA was isolated as described by Sanglard et al. with some modifications. C. albicans 475/15 was grown with agitation at 30 °C in YEPD until OD540 = 0.4. C. albicans cells were incubated with MIC of compounds in YEPD at 30 °C with agitation for 30 min. Cells were centrifuged (4600 rpm, 4 °C for 5 min (Rotanata 460 R, Hettich, Tuttlingen, Germany)) and the pellet was resuspended in 300 µL of RNA buffer (0.1 M Tris-HCl pH 7.5, 0.1M LiCl, 10mM EDTA, 0.5% SDS). The pellet was homogenized with 200 µL of DEPC treated glass beads and 300 µL of Phenol:Chloroform:Isoamyl Alcohol (Sigma-Aldrich, Darmstadt, Germany) in Precellys Evolution tissue homogenizer (Bertion instruments, Montigny-le-Bretonneux, France) at 4500 rpm for 5 s. After centrifugation (14,000 rpm, 4 °C, 1 min (Universal 32 R, Hettich, Tuttlingen, Germany)) 200 µL of supernatant was vortexed with 250 µL of Phenol:Chloroform:Isoamyl Alcohol for 10 s. Samples were centrifuged (14,000 rpm, 4 °C, 1 min) and 200 µL of supernatant was transferred to new tubes, 400 µL of ice-cold 99% ethanol was added to each tube, and they were kept on dry ice for 10 min. Samples were centrifuged (14,000 rpm, 4 °C, 2 min), pellet was washed with ethanol (70%), left to dry at room temperature, after which it was dissolved in 50 µL of DEPC treated water. Nanodrop (ND-1000, Witec AG, Sursee, Switzerland) was used for determination of concentration and purity of samples. RNA was stored at −80°C.
(§4) Amount of 10 µg RNA was incubated with 5 µL of DNAse buffer and 1 µL of DNAse at 37 °C for 30 min (DNA-free™ DNA Removal Kit, Ambion, Bleiswijk, Netherlands). After addition of DNAse inactivation reagent tubes were kept at room temperature with occasional vortexing for 5 min. Samples were centrifuged (14,000 rpm, 4°C, 2 min) and the concentration and quality of supernatant were analyzed on Nanodrop (ND-1000, Witec AG, Sursee, Switzerland).
(§5) Synthesis of cDNA was done with a Transcriptor High Fidelity cDNA synthesis kit (Roche). RNA (1 µg) was incubated with 60 µM random hexamer primers, in 11.4 µL of total sample volume, at 65 °C for 10 min. The mixture of Transcriptase reaction buffer 5×, Deoxynucleotide mix, DTT, Protector RNAse inhibitor, and Transcriptor High Fidelity Reverse Transcriptase was added to each tube according to manufacturer instructions. Synthesis of cDNA was completed by incubating the mixture at 50 °C for 30 min and 85 °C for 5 min (Peqstar thermocycler, Peqlab, Erlangen, Germany).
(§6) Wells of MicroAmp Fast 96-Well Reaction plate ((0.1 mL), Applied biosystems, Waltham, MA, USA) were incubated with 10 µL of mixture (cDNA, 2× MasterMix, primers, probe (Table 3), and water). Analysis was performed in StepOnePlus Real Time PCR system with relative standard curve method. Expression levels of CDR1 and ERG11 were normalized to expression of ACT1.

The next data set deals with C. albicans. To be noted: cited from earlier work.
Another data set concerns C. albicans biofilm. The note with it: C. albicans CAD1 biofilm; cited from earlier work.
A further data set has as its system ERG11. Put plainly: Expression of ERG11 (qPCR). The note with it: treatment with MIC. It is filed as cell-based, Candida albicans. The procedure: as §3, §4, §5, §6
For data set [4], the system named is CDR1. The note with it: identical assay, previously published; cited from earlier work.
The mark [5] stands for this setting: C. albicans 10/15, mean ± SD of three replicates, read-out: MFC.
The mark [6] stands for this setting: C. albicans 10/15, mean ± SD of three replicates, read-out: MIC.
The mark [7] stands for this setting: C. albicans 13/15, mean ± SD of three replicates, read-out: MFC.
Where [8] appears, read: C. albicans 13/15, mean ± SD of three replicates, read-out: MIC.
[9] abbreviates: C. albicans 475/15, mean ± SD of three replicates, read-out: MFC.
Setting [10] is: C. albicans 475/15, mean ± SD of three replicates, read-out: MIC.
Setting [11] is: C. albicans 527/14, mean ± SD of three replicates, read-out: MFC.
Where [12] appears, read: C. albicans 527/14, mean ± SD of three replicates, read-out: MIC.

A word on the MFC: it is the smallest concentration meeting the test's criterion for killing the fungus. With `C[C@@H]1[C@H](O)[C@@H](C)/C=C/C=C/C=C/C=C/C=C/C=C/C=C/[C@H](O[C@@H]2O[C@H](C)[C@@H](O)[C@H](N)[C@@H]2O)C[C@@H]2O[C@](O)(C[C@@H](O)C[C@@H](O)[C@H](O)CC[C@@H](O)C[C@@H](O)CC(=O)O[C@H]1C)C[C@H](O)[C@H]2C(=O)O` [Amphotericin B, amphotericin B, reference compound], the MFC with C. albicans 10/15 (setting [5]), in the data set on C. albicans 13/15 (setting [7]), in the data set on C. albicans 475/15 (setting [9]) and in the data set with C. albicans 527/14 (setting [11]) was 1.25 ± 0.002 µg/mL (≈ 1.35 µM) throughout. Also, the MIC with C. albicans 10/15 (setting [6]), in the data set with C. albicans 13/15 (setting [8]), in the data set on C. albicans 475/15 (setting [10]) and with C. albicans 527/14 (setting [12]) was 0.63 ± 0.001 µg/mL (≈ 0.682 µM) each time.

As usually defined, the GI50 is the concentration that inhibits growth by half. Higher therefore signals lower sensitivity of the cells. As for `Cc1c2ccncc2c(C)c2c1[nH]c1ccccc12` [Ellipticin, Ellipticine, reference compound], the GI50 in [1] came to 3.22 ± 0.2 µg/mL (≈ 13.1 µM).

With `C[C@@H]1O[C@@H](Oc2c(-c3ccc(O)c(O)c3)oc3cc(O)cc(O)c3c2=O)[C@H](O)[C@H](O)[C@H]1O` [Quercitrin, quercitrin], the MFC in the data set on C. albicans 10/15 (10/15), in the data set on C. albicans 13/15 (13/15), in the data set on C. albicans 475/15 (475/15) and against C. albicans 527/14 (527/14) was 75 ± 3 µg/mL (≈ 167 µM) throughout. The MIC against C. albicans 10/15 (10/15) was 37.5 ± 2 µg/mL (≈ 83.6 µM); with C. albicans 13/15 (13/15) it was 37.5 ± 1 µg/mL (≈ 83.6 µM); against C. albicans 475/15 (475/15), 37.5 ± 2 µg/mL (≈ 83.6 µM); with C. albicans 527/14 (527/14) it was 37.5 ± 2 µg/mL (≈ 83.6 µM); with Candida albicans it was 37.5 µg/mL (≈ 83.6 µM); in the data set with C. albicans (C. albicans ATCC 10231, ref 17), 100 µg/mL (≈ 223 µM). The MIC in the data set with C. albicans (C. albicans CAD1, clinical isolate) is over 512 µg/mL. Also, the results for the “antibiofilm activity” value (in data set [2]; with C. albicans biofilm) were “lowest potential to reduce biofilm formation” and “complete lack of activity”, respectively. For the same compound, in [2], the “inhibition of biofilm formation” value is “less than 50%”. Moreover, the “impact on CDR1 expression” value in the data set with CDR1 [3] was “downregulated”. Moreover, the GI50 in [1] worked out at 73 ± 3 µg/mL (≈ 163 µM).

Turning to `C[C@@H]1O[C@@H](OC[C@H]2O[C@@H](Oc3c(-c4ccc(O)c(O)c4)oc4cc(O)cc(O)c4c3=O)[C@H](O)[C@@H](O)[C@@H]2O)[C@H](O)[C@H](O)[C@H]1O` [Rutin, rutin], the MFC in the data set with C. albicans 10/15 (setting [5]) stood at 75 ± 2 µg/mL (≈ 123 µM); with C. albicans 13/15 (setting [7]), 75 ± 2 µg/mL (≈ 123 µM); in the data set on C. albicans 475/15 (setting [9]) it was 75 ± 1 µg/mL (≈ 123 µM); with C. albicans 527/14 (setting [11]), 75 ± 1 µg/mL (≈ 123 µM). Moreover, the MIC with C. albicans 10/15 (setting [6]) was 37.5 ± 1 µg/mL (≈ 61.4 µM); with C. albicans 13/15 (setting [8]), 37.5 ± 1 µg/mL (≈ 61.4 µM); with C. albicans 475/15 (setting [10]), 37.5 ± 1 µg/mL (≈ 61.4 µM); in the data set on C. albicans 527/14 (setting [12]), 37.5 ± 1 µg/mL (≈ 61.4 µM); in the data set with Candida albicans (C. albicans, this study, strain not given) it was 37.5 µg/mL (≈ 61.4 µM); with C. albicans (C. albicans ATCC 10231, ref 21), 40 µg/mL (≈ 65.5 µM). Further, the MIC in the data set with C. albicans (C. albicans ATCC 18804) is over 1000 µg/mL. The “antibiofilm activity” value was “lowest activity against biofilm formation” in data set [2] and “lack of C. albicans CAD1 antibiofilm activity” with C. albicans biofilm. Besides, the “inhibition of biofilm formation” value in data set [2] was “less than 50%”. Moreover, the “impact on ERG11 expression (words)” value in the data set with ERG11 is “lower expression levels; also recorded: negative impact; also recorded: lowering ERG11 expression”. Moreover, the 50% growth inhibitory concentration (GI50) in [1] was over 400 µg/mL. Moreover, the “concentration necessary for growth inhibition” value with C. albicans (C. albicans CA-1) is 1000 µg/mL.

In the case of `O=c1c(O[C@@H]2O[C@H](CO)[C@@H](O)[C@H](O)[C@H]2O)c(-c2ccc(O)cc2)oc2cc(O)cc(O)c12` [astragalin], the “impact on CDR1 expression” value in the data set on CDR1 [4] is “inhibitory impact”.
